ChEMBL document CHEMBL5316291 (J Med Chem, 2023)
The source made the active and inactive calls. The rule behind the calls is not given here.

How the values were obtained:
[1] = target: T1, Protein mono-ADP-ribosyltransferase PARP12 (Homo sapiens, UniProt Q9H0J9); assay: Inhibition of human recombinant N-terminal GST-tagged PARP12 (500 to 701 end residues) expressed in baculovirus infected Sf9 cells expression system incubated for 1 hr by ELISA assay
T1 sequence (Q9H0J9 whole entry): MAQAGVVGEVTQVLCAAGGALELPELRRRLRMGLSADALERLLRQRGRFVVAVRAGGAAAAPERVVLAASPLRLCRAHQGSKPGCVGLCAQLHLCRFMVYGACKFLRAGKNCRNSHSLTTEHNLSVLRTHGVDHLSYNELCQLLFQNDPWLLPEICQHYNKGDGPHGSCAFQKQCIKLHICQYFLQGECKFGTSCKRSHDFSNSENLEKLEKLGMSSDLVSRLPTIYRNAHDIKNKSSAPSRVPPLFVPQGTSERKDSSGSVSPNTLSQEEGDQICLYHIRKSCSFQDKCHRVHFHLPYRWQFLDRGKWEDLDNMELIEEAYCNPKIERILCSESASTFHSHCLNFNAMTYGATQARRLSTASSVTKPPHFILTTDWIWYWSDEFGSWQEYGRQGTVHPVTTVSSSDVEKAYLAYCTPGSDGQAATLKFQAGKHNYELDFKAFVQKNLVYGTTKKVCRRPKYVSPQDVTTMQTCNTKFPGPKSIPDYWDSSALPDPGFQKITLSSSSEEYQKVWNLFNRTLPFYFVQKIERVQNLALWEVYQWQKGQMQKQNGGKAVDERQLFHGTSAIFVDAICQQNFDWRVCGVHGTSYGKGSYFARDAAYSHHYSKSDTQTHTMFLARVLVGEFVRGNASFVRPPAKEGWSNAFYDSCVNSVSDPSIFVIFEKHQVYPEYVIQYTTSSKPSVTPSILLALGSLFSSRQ

[2] = Tmax in ICR mouse at 10 mg/kg, po measured upto 24 hrs by LC-MS/MS analysis; format: ADME, organism-based; details: in vivo
[3] = Initial plasma concentration in ICR mouse at 1 mg/kg, iv measured upto 24 hrs by LC-MS/MS analysis; format: ADME, organism-based
[4] = AUC(0 to infinity) in ICR mouse at 1 mg/kg, iv measured upto 24 hrs by LC-MS/MS analysis; format: ADME, organism-based; parameters: time < 24 hrs, dose 1 mg/kg, route iv; details: in vivo
[5] = Clearance in ICR mouse at 1 mg/kg, iv measured upto 24 hrs by LC-MS/MS analysis; format: ADME, organism-based; details: in vivo
[6] = Cytotoxicity against mouse AML12 cells assessed as inhibition of cell growth measured after 6 days by MTT assay; format: toxicity, cell-based
[7] = target: T2, Protein mono-ADP-ribosyltransferase TIPARP (Mus musculus) (UniProt Q8C1B2); assay: Inhibition of PARP7 in mouse CT26 cells assessed as increase in STAT1 phosphorylation incubated for 6 hrs in presence of DMXAA by Western blotting analysis; format: cell-based; details: dose 0.44-4 µM
T2 sequence (whole entry): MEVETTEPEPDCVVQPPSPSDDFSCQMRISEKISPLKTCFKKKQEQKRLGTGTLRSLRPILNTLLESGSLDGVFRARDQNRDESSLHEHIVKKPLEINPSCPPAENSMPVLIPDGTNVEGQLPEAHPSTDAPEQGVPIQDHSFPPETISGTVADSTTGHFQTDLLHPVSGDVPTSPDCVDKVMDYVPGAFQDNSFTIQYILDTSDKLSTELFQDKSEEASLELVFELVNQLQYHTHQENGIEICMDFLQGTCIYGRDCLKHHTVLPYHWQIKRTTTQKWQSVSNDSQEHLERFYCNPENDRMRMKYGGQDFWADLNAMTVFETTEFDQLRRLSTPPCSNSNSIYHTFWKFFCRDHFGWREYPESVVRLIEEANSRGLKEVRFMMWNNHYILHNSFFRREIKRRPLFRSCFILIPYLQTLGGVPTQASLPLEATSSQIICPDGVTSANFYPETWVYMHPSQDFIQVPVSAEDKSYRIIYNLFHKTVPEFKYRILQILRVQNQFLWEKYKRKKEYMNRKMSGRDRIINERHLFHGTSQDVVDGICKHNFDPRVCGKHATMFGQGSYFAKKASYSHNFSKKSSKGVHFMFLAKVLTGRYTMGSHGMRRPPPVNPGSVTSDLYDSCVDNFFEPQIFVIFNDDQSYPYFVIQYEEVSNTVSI

[8] = target: Voltage-gated inwardly rectifying potassium channel KCNH2 (Homo sapiens, UniProt Q12809); assay: Inhibition of hERG; format: toxicity
[9] = system: CT26; assay: Antitumor activity against mouse CT26 cells xenografted in BALB/c mouse assessed as tumor growth inhibition at 100 mg/kg, po bid measured for 14 days; format: functional; details: CT26, 336 h, time 14 day, read-out: TGI
[10] = system: CT26; assay: Antitumor activity against mouse CT26 cells xenografted in BALB/c mouse assessed as tumor growth inhibition at 25 mg/kg, po bid measured for 14 days; format: functional; details: CT26, 336 h, time 14 day, read-out: TGI
[11] = system: CT26; assay: Antitumor activity against mouse CT26 cells xenografted in BALB/c mouse assessed as tumor growth inhibition at 50 mg/kg, po bid measured for 14 days; format: functional; details: CT26, 336 h, time 14 day, read-out: TGI
[12] = Toxicity in BALB/c mouse implanted with mouse CT26 cells assessed as change in body weight at 25 to 100 mg/kg, po measured for 14 days; format: organism-based; details: in vivo, 336 h, dose 25-100 mg/kg, time 14 day
[13] = system: CT26; assay: Antitumor activity against mouse CT26 cells implanted in BALB/c mouse assessed as tumor cell contraction at 25 to 100 mg/kg, po bid measured for 14 days by hematoxylin and eosin staining based fluorescence microscopic analysis; format: functional, organism-based; details: dose 25-100 mg/kg, time 14.0 day
[14] = system: CT26; assay: Antitumor activity against mouse CT26 cells implanted in BALB/c mouse assessed as tumor cell agglutination at 25 to 100 mg/kg, po bid measured for 14 days by hematoxylin and eosin staining based fluorescence microscopic analysis; format: functional, organism-based; details: dose 25-100 mg/kg, time 14.0 day
[15] = system: CT26; assay: Antitumor activity against mouse CT26 cells implanted in BALB/c mouse assessed as decrease in Ki-67 expression at 25 to 100 mg/kg, po bid measured for 14 days by immunohistochemistry analysis; format: functional, organism-based; details: dose 25-100 mg/kg, time 14.0 day
[16] = system: CT26; assay: Antitumor activity against mouse CT26 cells implanted in po dosed BALB/c mouse assessed as increase in CXCL10 levels measured after 14 days by RT-qPCR analysis; format: functional, organism-based; details: dose 25-100 mg/kg, time 14.0 day
[17] = system: CT26; assay: Antitumor activity against mouse CT26 cells implanted in immunodeficient BALB/c mouse at 100 mg/kg, po bid measured for 10 days; format: functional, organism-based; details: time 10.0 day

Chain of Voltage-gated inwardly rectifying potassium channel KCNH2 (Q12809 whole entry): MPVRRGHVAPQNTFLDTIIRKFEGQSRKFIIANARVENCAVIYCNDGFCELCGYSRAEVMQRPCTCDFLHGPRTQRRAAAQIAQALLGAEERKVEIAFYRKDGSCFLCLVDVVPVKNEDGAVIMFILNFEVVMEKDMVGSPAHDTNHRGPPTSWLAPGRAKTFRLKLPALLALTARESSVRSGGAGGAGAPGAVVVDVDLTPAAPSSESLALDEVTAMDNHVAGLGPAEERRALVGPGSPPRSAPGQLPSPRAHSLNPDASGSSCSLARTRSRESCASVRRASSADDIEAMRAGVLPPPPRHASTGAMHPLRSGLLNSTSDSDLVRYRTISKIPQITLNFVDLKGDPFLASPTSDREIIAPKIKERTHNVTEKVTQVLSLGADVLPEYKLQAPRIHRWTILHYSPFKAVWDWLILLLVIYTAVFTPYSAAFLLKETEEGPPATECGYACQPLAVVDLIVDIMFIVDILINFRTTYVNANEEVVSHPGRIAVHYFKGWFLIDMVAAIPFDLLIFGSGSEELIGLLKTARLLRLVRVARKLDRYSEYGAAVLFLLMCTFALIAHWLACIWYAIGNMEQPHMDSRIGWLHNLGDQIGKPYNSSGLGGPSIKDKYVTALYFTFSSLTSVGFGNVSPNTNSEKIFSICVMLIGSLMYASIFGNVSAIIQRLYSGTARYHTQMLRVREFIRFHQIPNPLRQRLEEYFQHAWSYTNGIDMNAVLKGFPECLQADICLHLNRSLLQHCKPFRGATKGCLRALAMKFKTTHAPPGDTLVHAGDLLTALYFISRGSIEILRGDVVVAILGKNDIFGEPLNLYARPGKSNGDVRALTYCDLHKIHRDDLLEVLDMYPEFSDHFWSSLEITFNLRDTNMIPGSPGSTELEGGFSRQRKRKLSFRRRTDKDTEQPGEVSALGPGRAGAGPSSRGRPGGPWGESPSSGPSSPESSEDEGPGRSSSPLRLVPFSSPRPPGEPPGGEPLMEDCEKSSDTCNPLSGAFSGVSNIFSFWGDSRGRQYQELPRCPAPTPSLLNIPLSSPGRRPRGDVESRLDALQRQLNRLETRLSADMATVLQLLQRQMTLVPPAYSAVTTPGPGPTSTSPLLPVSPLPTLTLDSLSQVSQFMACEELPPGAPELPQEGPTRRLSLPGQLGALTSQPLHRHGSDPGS

For `C[C@@H](CN1CC(C(=O)N2CCN(c3ncc(C(F)(F)F)cn3)CC2)C1)Nc1cn[nH]c(=O)c1C(F)(F)F`, which IC50 [1] is on record?
Its IC50 is 453 nM.

What about the Tmax [2] of the same molecule?
The Tmax was 34.8 min.

And the C0 at 24 h [3]?
The C0 at 24 h was 504 ng/mL.

What about the AUC [4] of the same molecule?
Its AUC is 591.1 ng·h/mL.

What about the clearance [5] of the same molecule?
The clearance was 29 mL/min/kg.

What about the IC50 at 6 days [6] of the same molecule?
Its IC50 at 6 days is over 50 µM.

What about the inhibition [7] of the same molecule?
Its inhibition is “Dose-Dependent Effect”.

And the “inhibition (INH)” value [8]?
The value was “Not Active”.

What about the inhibition in vivo at 100 mg/kg [9] of the same molecule?
Its inhibition in vivo at 100 mg/kg is 67%.

What about the inhibition in vivo at 25 mg/kg [10] of the same molecule?
The inhibition in vivo at 25 mg/kg was 39%.

What about the inhibition in vivo at 50 mg/kg [11] of the same molecule?
The inhibition in vivo at 50 mg/kg was 46%.

And the Activity [12]?
The Activity was “Non-Toxic”.

What about the Activity [13] of the same molecule?
The Activity was “Active”.

What about the Activity [14] of the same molecule?
The Activity was “Active”.

And the Activity [15]?
Its Activity is “Active”.

And the Activity [16]?
Its Activity is “Dose-Dependent Effect”.

And the Activity [17]?
The Activity was “inactive”.
